Experimental data reported in patent US8962674B2 (Tokyo Institute of Technology, priority 2006, dated 2015).

Structure (SMILES) | melting point
COc1ccc(/C=C/C(=O)CC(=O)/C=C/c2cccc(O)c2)cc1O [CU081, (1E,6E)-1-(3-hydroxy-4-methoxyphenyl)-7-(3-hydroxyphenyl)hepta-1,6-diene-3,5-dione] | 200 to 206 °C
COc1ccc(/C=C/C(=O)CC(=O)/C=C/c2ccc(N(C)C)cc2[N+](=O)[O-])cc1O [CU197, (1E,6E)-1-(4-dimethylamino-2-nitrophenyl)-7-(3-hydroxy-4-methoxyphenyl)hepta-1,6-diene-3,5-dione] | 183 to 186 °C
O=C(/C=C/c1cn(Cc2ccccc2)c2ccccc12)CC(=O)/C=C/c1cn(Cc2ccccc2)c2ccccc12 [CU397, (1E,6E)-1,7-bis(1-benzyl-1H-indol-3-yl)hepta-1,6-diene-3,5-dione] | 206 to 213 °C
CN(C)c1ccc(/C=C/C(=O)CC(=O)/C=C/c2ccc(N(C)C)cc2[N+](=O)[O-])c([N+](=O)[O-])c1 | 245 to 250 °C
CCN(CC)c1ccc(/C=C/C(=O)CC(=O)/C=C/c2ccc(N(CC)CC)cc2OC(=O)c2ccccc2)c(OC(=O)c2ccccc2)c1 [CU427, (1E,6E)-1,7-bis(2-benzoyloxy-4-diethylaminophenyl)hepta-1,6-diene-3,5-dione] | 192 to 196 °C
COc1ccc(O)cc1/C=C/C(=O)CC(=O)/C=C/c1cc(O)ccc1OC [CU380, (1E,6E)-1,7-bis(5-hydroxy-2-methoxyphenyl)hepta-1,6-diene-3,5-dione] | 188 to 196 °C
CC(C)(C)OC(=O)N1CCN(c2ccccc2/C=C/C(=O)CC(=O)/C=C/c2ccc(O)cc2)CC1 [CU499, (1E,6E)-1-{2-[4-(tert-butoxycarbonyl)piperazin-1-yl]phenyl}-7-(4-hydroxyphenyl)hepta-1,6-diene-3,5-dione] | 115 to 121 °C
O=C(/C=C/c1ccc(O)cc1)CC(=O)/C=C/c1cccc(O)c1O [CU264, (1E,6E)-1-(2,3-dihydroxyphenyl)-7-(4-hydroxyphenyl)hepta-1,6-diene-3,5-dione] | 173 to 176 °C
O=C(/C=C/c1ccc(O)cc1)CC(=O)/C=C/c1ccc(Br)cc1N1CCN(CCO)CC1 [CU502, (1E,6E)-1-{4-bromo-2-[4-(2-hydroxyethyl)piperazin-1-yl]phenyl}-7-(4-hydroxyphenyl)hepta-1,6-diene-3,5-dione] | 127 to 133 °C
COc1cc(/C=C/C(=O)CC(=O)/C=C/c2ccc(O)cc2)c(Br)cc1O [CU539, (1E,6E)-1-(2-bromo-4-hydroxy-5-methoxyphenyl)-7-(4-hydroxyphenyl)hepta-1,6-diene-3,5-dione] | 237 to 242 °C
COCOc1c(O)cccc1/C=C/C(=O)CC(=O)/C=C/c1ccc(OC)c(O)c1 [CU248, (1E,6E)-1-[3-hydroxy-2-(methoxymethoxy)phenyl]-7-(3-hydroxy-4-methoxyphenyl)hepta-1,6-diene-3,5-dione] | 79 to 83 °C
COc1ccc(/C=C/C(=O)CC(=O)/C=C/c2cc(O)ccc2O)cc1O [CU091, (1E,6E)-1-(2,5-dihydroxyphenyl)-7-(3-hydroxy-4-methoxyphenyl)hepta-1,6-diene-3,5-dione] | 115 to 121 °C
Cn1cc(/C=C/C(=O)CC(=O)/C=C/c2ccc(O)cc2)c2ccccc21 [CU123, (1E,6E)-1-(4-hydroxyphenyl)-7-(1-methyl-1H-indol-3-yl)hepta-1,6-diene-3,5-dione] | 185 to 190 °C
CCN(CC)c1ccc(/C=C/C(=O)CC(=O)/C=C/c2ccc(O)cc2)c(OCc2cccnc2)c1 [CU449, (1E,6E)-1-[4-diethylamino-2-(pyridin-3-ylmethoxy)phenyl]-7-(4-hydroxyphenyl)hepta-1,6-diene-3,5-dione] | 180 to 186 °C
COc1cc(/C=C/C(=O)CC(=O)/C=C/c2ccc(O)c(F)c2)ccc1O [CU032, (1E,6E)-1-(3-fluoro-4-hydroxyphenyl)-7-(4-hydroxy-3-methoxyphenyl)hepta-1,6-diene-3,5-dione] | 186 to 189 °C
O=C(/C=C/c1ccc(O)cc1)CC(=O)/C=C/c1cccc(Oc2ccccc2)c1 [CU214, (1E,6E)-1-(4-hydroxyphenyl)-7-(3-phenoxyphenyl)hepta-1,6-diene-3,5-dione] | 194 to 198 °C
O=C(/C=C/c1ccc(O)cc1)CC(=O)/C=C/c1cccc2ncccc12 [CU324, (1E,6E)-1-(4-hydroxyphenyl)-7-(quinolin-5-yl)hepta-1,6-diene-3,5-dione] | 272 to 275 °C
COc1cc(/C=C/C(=O)CC(=O)/C=C/c2cn(C)c3ccccc23)ccc1O [CU124, (1E,6E)-1-(4-hydroxy-3-methoxyphenyl)-7-(1-methyl-1H-indol-3-yl)hepta-1,6-diene-3,5-dione] | 173 to 175 °C
O=C(/C=C/c1ccc(O)cc1)CC(=O)/C=C/c1ncc[nH]1 [CU143, (1E,6E)-1-(4-hydroxyphenyl)-7-(1H-imidazol-2-yl)hepta-1,6-diene-3,5-dione] | 175 to 181 °C
Cc1ccc(-n2cccc2/C=C/C(=O)CC(=O)/C=C/c2cccn2-c2ccc(C)cc2)cc1 [CU389, (1E,6E)-1,7-bis[1-(4-methylphenyl)-1H-pyrrol-2-yl]hepta-1,6-diene-3,5-dione] | 151 to 155 °C

Structure (SMILES) | melting point
CCN(CC)c1ccc(/C=C/C(=O)CC(=O)/C=C/c2ccc(O)c(OC)c2)c(O)c1 [CU277, (1E,6E)-1-(4-diethylamino-2-hydroxyphenyl)-7-(4-hydroxy-3-methoxyphenyl)hepta-1,6-diene-3,5-dione] | 89 to 92 °C
COc1cc(/C=C/C(=O)C(=Cc2ccncc2)C(C)=O)ccc1O [CU014, (5E)-6-(4-hydroxy-3-methoxyphenyl)-3-(pyridin-4-ylmethylene)hex-5-ene-2,4-dione] | 92 to 95 °C
COc1cc(/C=C/C(=O)CC(=O)/C=C/c2ccc(O)cc2O)ccc1O [CU257, (1E,6E)-1-(2,4-dihydroxyphenyl)-7-(4-hydroxy-3-methoxyphenyl)hepta-1,6-diene-3,5-dione] | 99 to 108 °C
CN(C)c1cc(Br)ccc1/C=C/C(=O)CC(=O)/C=C/c1ccc(O)cc1 [CU533, (1E,6E)-1-(4-bromo-2-dimethylaminophenyl)-7-(4-hydroxyphenyl)hepta-1,6-diene-3,5-dione] | 74 to 81 °C
COc1ccc(/C=C/C(=O)CC(=O)/C=C/c2cccc(O)c2O)cc1O [CU265, (1E,6E)-1-(2,3-dihydroxyphenyl)-7-(3-hydroxy-4-methoxyphenyl)hepta-1,6-diene-3,5-dione] | 170 to 172 °C
Cn1cccc1/C=C/C(=O)CC(=O)/C=C/c1ccc(O)cc1 [CU120, (1E,6E)-1-(4-hydroxyphenyl)-7-(1-methyl-1H-pyrrol-2-yl)hepta-1,6-diene-3,5-dione] | 169 to 173 °C
COc1cc(/C=C/C(=O)CC(=O)/C=C/c2ccc(N(C)C)cc2Cl)ccc1O [CU196, (1E,6E)-1-(2-chloro-4-dimethylaminophenyl)-7-(4-hydroxy-3-methoxyphenyl)hepta-1,6-diene-3,5-dione] | 113 to 120 °C
O=C(/C=C/c1ccc(O)cc1)CC(=O)/C=C/c1ccc2oc(=O)ccc2c1 [CU445, (1E,6E)-1-(4-hydroxyphenyl)-7-(coumarin-6-yl)hepta-1,6-diene-3,5-dione] | 240 to 246 °C
COc1cc(/C=C/C(=O)CC(=O)/C=C/c2ccc(OC)c3ccccc23)ccc1O [CU118, (1E,6E)-1-(4-hydroxy-3-methoxyphenyl)-7-(4-methoxynaphthalen-1-yl)hepta-1,6-diene-3,5-dione] | 193 to 196 °C
COc1ccc(/C=C/C(=O)CC(=O)/C=C/c2ccc(OC)c3ccccc23)cc1O [CU163, (1E,6E)-1-(3-hydroxy-4-methoxyphenyl)-7-(4-methoxynaphthalen-1-yl)hepta-1,6-diene-3,5-dione] | 170 to 175 °C
COc1cc(/C=C/C(=O)CC(=O)/C=C/c2ccc(O)cc2OC)ccc1O [CU085, (1E,6E)-1-(4-hydroxy-2-methoxyphenyl)-7-(4-hydroxy-3-methoxyphenyl)hepta-1,6-diene-3,5-dione] | 203 to 208 °C
O=C(/C=C/c1ccc(O)cc1)CC(=O)/C=C/c1ccc2[nH]ncc2c1 [CU349, (1E,6E)-1-(4-hydroxyphenyl)-7-(1H-indazol-5-yl)hepta-1,6-diene-3,5-dione] | 148 to 152 °C
COc1ccc(/C=C/C(=O)CC(=O)/C=C/c2ccc(O)cc2O)cc1O [CU258, (1E,6E)-1-(2,4-dihydroxyphenyl)-7-(3-hydroxy-4-methoxyphenyl)hepta-1,6-diene-3,5-dione] | 104 to 109 °C
O=C(/C=C/c1ccc(O)cc1)CC(=O)/C=C/c1c[nH]cn1 [CU157, (1E,6E)-1-(4-hydroxyphenyl)-7-(1H-imidazol-4-yl)hepta-1,6-diene-3,5-dione] | 168 to 172 °C
O=C(/C=C/c1ccc(O)cc1)CC(=O)/C=C/c1cccnc1N1CCOCC1 [CU337, (1E,6E)-1-(4-hydroxyphenyl)-7-(2-morpholinopyridin-3-yl)hepta-1,6-diene-3,5-dione] | 159 to 165 °C
COc1cc(/C=C/C(=O)CC(=O)/C=C/c2cc(O)ccc2OC)ccc1O [CU178, (1E,6E)-1-(4-hydroxy-3-methoxyphenyl)-7-(5-hydroxy-2-methoxyphenyl)hepta-1,6-diene-3,5-dione] | 75 to 80 °C
COc1cc(/C=C/C(=O)CC(=O)/C=C/c2ncc[nH]2)ccc1O [CU152, (1E,6E)-1-(4-hydroxy-3-methoxyphenyl)-7-(1H-imidazol-2-yl)hepta-1,6-diene-3,5-dione] | 235 to 240 °C
CCN(CC)c1ccc(/C=C/C(=O)CC(=O)/C=C/c2ccc(O)cc2)c(OCc2ccc(OC)cc2)c1 [CU448, (1E,6E)-1-[4-diethylamino-2-(4-methoxybenzyloxy)phenyl]-7-(4-hydroxyphenyl)hepta-1,6-diene-3,5-dione] | 71 to 78 °C
COc1ccc(O)c(/C=C/C(=O)CC(=O)/C=C/c2ccc(O)c(OC)c2)c1 [CU088, (1E,6E)-1-(2-hydroxy-5-methoxyphenyl)-7-(4-hydroxy-3-methoxyphenyl)hepta-1,6-diene-3,5-dione] | 78 to 80 °C
O=C(/C=C/c1cc(O)ccc1-c1ccccc1)CC(=O)CCc1ccc(O)cc1 [CU541, (E)-1-(4-hydroxybiphenyl-2-yl)-7-(4-hydroxyphenyl)hept-1-ene-3,5-dione] | 148 to 158 °C
